Common to all, as to format: functional
The subject of assay [1] is Pseudomonas aeruginosa. The experiment in a line: In vitro antimicrobial activity against Pseudomonas aeruginosa GC 1544 strain. Conditions: Pseudomonas aeruginosa; read-out: MIC.
Assay [2] concerns Staphylococcus aureus. The experiment in a line: In vitro antimicrobial activity against Staphylococcus aureus GC 2220 strain. Conditions: Staphylococcus aureus; read-out: MIC.
The next assay concerns Enterococcus faecium. Kind of assay: In vitro antimicrobial activity against Enterococcus faecium GC 1182 strain. Particulars: Enterococcus faecium; read-out: MIC.
The species named for assay [3] is Mus musculus. The experiment in a line: animal or person. Conditions: Mus musculus, po; read-out: ED50.
Description: Tested for oral activity against Escherichia coli #311 infection in mice after single oral dose(SOD)
Assay [4] deals with Escherichia coli. Kind of assay: In vitro antimicrobial activity against Escherichia coli GC 1792 strain. Conditions: Escherichia coli; read-out: MIC.
Another assay relates to Morganella morganii. The experiment in a line: In vitro antimicrobial activity against Morganella morganii GC 2213 strain. Particulars: Morganella morganii; read-out: MIC.
The subject of assay [5] is Staphylococcus aureus. Kind of assay: In vitro antimicrobial activity against Staphylococcus aureus ATCC 29213 strain.
Assay [6] concerns Stenotrophomonas maltophilia. Kind of assay: In vitro antimicrobial activity against Xanthomonas maltophilia GC 562 strain.
In assay [7] the test system is Escherichia coli. The experiment in a line: In vitro antimicrobial activity against Escherichia coli GC 2205 strain.
A further assay has as its system Enterococcus faecalis. Kind of assay: In vitro antimicrobial activity against Enterococcus faecalis GC 842 strain. Conditions: Enterococcus faecalis; read-out: MIC.
The next assay deals with Citrobacter freundii. The experiment in a line: In vitro antimicrobial activity against Citrobacter freundii GC 2211 strain. Particulars: Citrobacter freundii; read-out: MIC.
In assay [8] the test system is Acinetobacter calcoaceticus. Kind of assay: In vitro antimicrobial activity against Acinetobacter calcoaceticus GC 756 strain.
Assay [9] deals with Escherichia coli. Kind of assay: In vitro antimicrobial activity against Escherichia coli ATCC 25922 strain.
The subject of assay [10] is Mus musculus. Kind of assay: Tested for oral activity against Escherichia coli #311 infection in mice after single subcutaneous dose(SSC).
In a further assay the test system is Enterobacter cloacae. Kind of assay: In vitro antimicrobial activity against Enterobacter cloacae GC 2209 strain.
Assay [11] concerns Pseudomonas aeruginosa. The experiment in a line: In vitro antimicrobial activity against Pseudomonas aeruginosa ATCC 27853 strain. Conditions: Pseudomonas aeruginosa, ATCC 27853; read-out: MIC.
The subject of assay [12] is Mus musculus. Kind of assay: Tested for oral activity against Staphylococcus aureus smith infection in mice after single oral dose(SOD); 0.83-1.7.
The subject of assay [13] is Mus musculus. Kind of assay: Tested for oral activity against Staphylococcus aureus smith infection in mice after single subcutaneous dose(SSC); 0.06-0.21.
A short description of assay [14]: Ratio of ED50 of single oral dose to ED50 of single subcutaneous dose against Staphylococcus aureus smith infection in mice.
The subject of assay [15] is Mus musculus. Kind of assay: Tested for oral activity against Staphylococcus aureus smith infection in mice after single subcutaneous dose(SSC); 0.1-0.21.
Assay [16] is described as follows: Ratio of ED50 of single oral dose to ED50 of single subcutaneous dose against Staphylococcus aureus smith infection in mice; 16-8.
The subject of assay [17] is Mus musculus. The experiment in a line: Tested for oral activity against Staphylococcus aureus smith infection in mice after single subcutaneous dose(SSC); 0.42-0.83.
For assay [18], the system named is Mus musculus. Kind of assay: Tested for oral activity against Staphylococcus aureus smith infection in mice after single oral dose(SOD). Particulars: Mus musculus, po; read-out: ED50.
Assay [19] concerns Mus musculus. Kind of assay: Tested for oral activity against Staphylococcus aureus smith infection in mice after single subcutaneous dose(SSC); 0.12-0.25.
Assay [20] has as its system Mus musculus. The experiment in a line: Tested for oral activity against Staphylococcus aureus smith infection in mice after single oral dose(SOD); 4-8.
In assay [21] the test system is Mus musculus. Kind of assay: Tested for oral activity against Escherichia coli #311 infection in mice after single subcutaneous dose(SSC); 0.5-1.
The species named for assay [22] is Mus musculus. The experiment in a line: animal or person. Conditions: Mus musculus; read-out: ED50.
Assay [23] has as its system Mus musculus. The experiment in a line: Tested for oral activity against Staphylococcus aureus smith infection in mice after single subcutaneous dose(SSC).
[24] abbreviates: Acinetobacter calcoaceticus, read-out: MIC.

Converted amounts (≈) assume the structure as drawn.

As usually defined, the MIC is the smallest concentration in the dilution series that meets the test's criterion for growth inhibition. The ED50 is the dose that gives a 50% effect, or the effect in half of the subjects. `C[C@H]1C(S[C@@H]2CCO[C@@H]2CNC(=O)[C@@H](N)Cc2ccccc2)=C(C(=O)O)N2C(=O)[C@H]([C@@H](C)O)C12` (some centres undefined): the MIC in the assay on Pseudomonas aeruginosa [1] is 128 µg/mL (≈ 261 µM); in the assay with Staphylococcus aureus [2], 8 µg/mL (≈ 16.3 µM); in the assay on Enterococcus faecium, 128 µg/mL (≈ 261 µM); in the assay with Escherichia coli [4] it was 0.5 µg/mL (≈ 1.02 µM); in the assay with Morganella morganii, 2 µg/mL (≈ 4.09 µM); with Staphylococcus aureus [5] it was 0.25 µg/mL (≈ 0.511 µM). Moreover, the MIC in assay [6] was greater than 128 µg/mL; against Escherichia coli [7], 0.06 µg/mL (≈ 0.123 µM); with Enterococcus faecalis it was 1 µg/mL (≈ 2.04 µM); with Citrobacter freundii, 8 µg/mL (≈ 16.3 µM); in assay [8] (setting [24]) it was 32 µg/mL (≈ 65.4 µM); in the assay on Escherichia coli [9], 0.5 µg/mL (≈ 1.02 µM). Besides, the MIC with Enterobacter cloacae is 4 µg/mL (≈ 8.17 µM); in the assay on Pseudomonas aeruginosa [11], 64 µg/mL (≈ 131 µM). The median effective dose (ED50) turned out to be 24 mg/kg in the assay filed under Mus musculus [3] and 13 mg/kg in the assay on Mus musculus [10].
Take `C[C@@H](N)C(=O)NC[C@@H]1C[C@@H](SC2=C(C(=O)O)N3C(=O)[C@H]([C@@H](C)O)C3[C@H]2C)CO1` (some centres undefined): the MIC with Pseudomonas aeruginosa [1] was 64 µg/mL (≈ 155 µM); in the assay with Staphylococcus aureus [2], 4 µg/mL (≈ 9.67 µM); in the assay with Enterococcus faecium it was greater than 128 µg/mL; in the assay with Escherichia coli [4], 0.12 µg/mL (≈ 0.29 µM); in the assay on Morganella morganii it was 1 µg/mL (≈ 2.42 µM); in the assay with Staphylococcus aureus [5], less than 0.06 µg/mL. In addition, the MIC in assay [6] was greater than 128 µg/mL; against Escherichia coli [7], 0.12 µg/mL (≈ 0.29 µM); in the assay with Enterococcus faecalis, 4 µg/mL (≈ 9.67 µM); in the assay with Citrobacter freundii, 0.5 µg/mL (≈ 1.21 µM); in assay [8] (setting [24]), 8 µg/mL (≈ 19.3 µM); against Escherichia coli [9], less than 0.06 µg/mL. Besides, the values for the minimum inhibitory concentration (MIC) in the assay with Enterobacter cloacae and in the assay on Pseudomonas aeruginosa [11] were 0.12 µg/mL (≈ 0.29 µM) and 32 µg/mL (≈ 77.4 µM), respectively. For the same compound, the 50% effective dose (ED50) with Mus musculus [12] stood at 0.83 mg/kg; in the assay on Mus musculus [13], 0.06 mg/kg. For the same compound, the Ratio in assay [14] stood at 14.
With `C[C@@H](N)C(=O)NC[C@@H]1C[C@H](SC2=C(C(=O)O)N3C(=O)[C@H]([C@@H](C)O)C3[C@H]2C)CO1` (some centres undefined), the MIC in the assay with Pseudomonas aeruginosa [1] is 64 µg/mL (≈ 155 µM); in the assay on Staphylococcus aureus [2] it was 8 µg/mL (≈ 19.3 µM); in the assay on Enterococcus faecium, greater than 128 µg/mL; with Escherichia coli [4], 0.06 µg/mL (≈ 0.145 µM); in the assay with Morganella morganii, 1 µg/mL (≈ 2.42 µM); against Staphylococcus aureus [5], less than 0.06 µg/mL. In addition, the MIC in [6] is greater than 128 µg/mL; in the assay with Escherichia coli [7], 0.12 µg/mL (≈ 0.29 µM); in the assay with Enterococcus faecalis, 4 µg/mL (≈ 9.67 µM); in the assay with Citrobacter freundii, 1 µg/mL (≈ 2.42 µM); in [8] (setting [24]) it was 8 µg/mL (≈ 19.3 µM); against Escherichia coli [9], less than 0.06 µg/mL. Further, the MIC with Enterobacter cloacae turned out to be 0.25 µg/mL (≈ 0.605 µM); with Pseudomonas aeruginosa [11], 32 µg/mL (≈ 77.4 µM). Besides, the ED50 in the assay on Mus musculus [12] is 0.83 mg/kg; in the assay with Mus musculus [15] it was 0.1 mg/kg. Further, the Ratio in assay [14] is 8.3.
Consider `C[C@H](N)C(=O)NC[C@H]1OCC[C@H]1SC1=C(C(=O)O)N2C(=O)[C@H]([C@@H](C)O)C2[C@H]1C` (some centres undefined), for which the minimal inhibitory concentration (MIC) was 64 µg/mL (≈ 155 µM) in the assay with Pseudomonas aeruginosa [1]; 8 µg/mL (≈ 19.3 µM) with Staphylococcus aureus [2]; greater than 128 µg/mL in the assay on Enterococcus faecium; 0.12 µg/mL (≈ 0.29 µM) in the assay on Escherichia coli [4]; 1 µg/mL (≈ 2.42 µM) in the assay with Morganella morganii; less than 0.06 µg/mL against Staphylococcus aureus [5]. Further, the MIC in assay [6] is greater than 128 µg/mL; in the assay with Escherichia coli [7], less than 0.06 µg/mL; in the assay with Enterococcus faecalis it was 2 µg/mL (≈ 4.84 µM); with Citrobacter freundii, 1 µg/mL (≈ 2.42 µM); in [8] (setting [24]), 8 µg/mL (≈ 19.3 µM); in the assay on Escherichia coli [9], less than 0.06 µg/mL. For the same compound, the MIC in the assay with Enterobacter cloacae was determined as 0.25 µg/mL (≈ 0.605 µM); with Pseudomonas aeruginosa [11] it was 64 µg/mL (≈ 155 µM). Besides, the Ratio in assay [16] is on record as greater than 16. For the same compound, the ED50 with Mus musculus [17] came out at 0.42 mg/kg; in the assay on Mus musculus [18], 6.6 mg/kg.
`C[C@H]1C(S[C@H]2COC[C@H]2CN)=C(C(=O)O)N2C(=O)[C@H]([C@@H](C)O)C12` (some centres undefined): the MIC in the assay with Pseudomonas aeruginosa [1] is 32 µg/mL (≈ 93.5 µM); in the assay with Staphylococcus aureus [2], 4 µg/mL (≈ 11.7 µM); with Enterococcus faecium, 128 µg/mL (≈ 374 µM); in the assay with Escherichia coli [4] it was less than 0.06 µg/mL; in the assay with Morganella morganii, 2 µg/mL (≈ 5.84 µM); in the assay with Staphylococcus aureus [5] it was less than 0.06 µg/mL. Moreover, the MIC is greater than 128 µg/mL in [6]; 0.12 µg/mL (≈ 0.35 µM) with Escherichia coli [7]; 2 µg/mL (≈ 5.84 µM) in the assay with Enterococcus faecalis; 0.25 µg/mL (≈ 0.73 µM) in the assay with Citrobacter freundii; 2 µg/mL (≈ 5.84 µM) in assay [8] (setting [24]); less than 0.06 µg/mL against Escherichia coli [9]. Further, the MIC with Enterobacter cloacae is less than 0.06 µg/mL; in the assay on Pseudomonas aeruginosa [11] it was 16 µg/mL (≈ 46.7 µM). Also, the ED50 turned out to be 0.12 mg/kg with Mus musculus [19], 4 mg/kg in the assay with Mus musculus [20] and 0.5 mg/kg in the assay on Mus musculus [21]. The Ratio in [14] was determined as 33.
On to `C[C@H]1C(SC2COC(CN)C2)=C(C(=O)O)N2C(=O)[C@H]([C@@H](C)O)C12` (stereo in doubt; trans), for which the MIC with Pseudomonas aeruginosa [1] is 8 µg/mL (≈ 23.4 µM); in the assay with Staphylococcus aureus [2] it was 8 µg/mL (≈ 23.4 µM); in the assay with Enterococcus faecium, 128 µg/mL (≈ 374 µM); in the assay with Escherichia coli [4] it was 0.06 µg/mL (≈ 0.175 µM); with Morganella morganii, 0.25 µg/mL (≈ 0.73 µM); in the assay on Staphylococcus aureus [5], less than 0.06 µg/mL. For the same compound, the MIC was greater than 128 µg/mL in assay [6]; less than 0.06 µg/mL against Escherichia coli [7]; 2 µg/mL (≈ 5.84 µM) with Enterococcus faecalis; 0.06 µg/mL (≈ 0.175 µM) in the assay on Citrobacter freundii; 1 µg/mL (≈ 2.92 µM) in assay [8]; less than 0.06 µg/mL against Escherichia coli [9]. The MIC was less than 0.06 µg/mL in the assay with Enterobacter cloacae and 4 µg/mL (≈ 11.7 µM) in the assay on Pseudomonas aeruginosa [11]. For the same compound, the ED50 in the assay filed under Mus musculus [3] came out at 3.7 mg/kg; in the assay listed under Mus musculus [22], 0.27 mg/kg; with Mus musculus [23], 0.11 mg/kg; with Mus musculus [18], 1.7 mg/kg. The Ratio in assay [14] amounted to 16.

The record behind these values is ChEMBL document CHEMBL1130465, “Peptidic prodrugs of novel aminomethyl-THF 1-methylcarbapenems” (1997).
